# Experimental data as given in patent US20240058350A1, “Methods of Treatment” (Arena Pharmaceuticals, Inc., priority 2020, published 2024).
# Columns and labels:
# [1] = Clinical Trial 2: phase 1 multiple ascending oral dose TID for 7 days, PK; type: in vivo, human; settings: for accumulation ratio as measured by AUCtau: 60 and 80 mg Compound 1 oral TID, after 7 days; for metabolite exposures with increasing Compound 1 doses / metabolite to parent ratios with increasing Compound 1 doses: oral TID for 7 days
# Description: A phase 1, randomized, double-blind, placebo-controlled, multiple-ascending dose-escalation study was conducted to assess the safety, tolerability, PD, and steady state PK of the HCl salt of Compound 1 from 5 to 80 mg (adjusted free-base concentration) administered orally TID for 7 days in a total of 50 healthy subjects.
# 5-HT2C receptors = target: T1, 5-HT2C receptors (Homo sapiens, UniProt P28335); assay: affinity for 5-HT2C receptors; type: binding
# T1 sequence (P28335 33-458): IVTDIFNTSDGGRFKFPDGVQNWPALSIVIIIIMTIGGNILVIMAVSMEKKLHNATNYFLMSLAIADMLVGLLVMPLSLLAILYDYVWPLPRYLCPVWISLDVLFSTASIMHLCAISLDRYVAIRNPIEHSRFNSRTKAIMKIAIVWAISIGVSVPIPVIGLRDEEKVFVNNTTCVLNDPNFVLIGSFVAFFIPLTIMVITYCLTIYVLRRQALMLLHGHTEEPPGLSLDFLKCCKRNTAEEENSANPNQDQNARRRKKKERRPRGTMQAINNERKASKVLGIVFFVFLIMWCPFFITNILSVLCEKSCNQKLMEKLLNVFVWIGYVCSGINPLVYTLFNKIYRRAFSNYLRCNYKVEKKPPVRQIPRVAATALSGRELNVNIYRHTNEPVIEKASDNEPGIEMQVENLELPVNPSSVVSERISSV
# Excerpt: (§1) M1 refers to N-(4-(2-(2-hydroxyethylamino)ethoxy)-3-(1-methyl-1H-pyrazol-5-yl)phenyl)-3-methoxybenzamide. M2 refers to N-(4-(2-aminoethoxy)-3-(1-methyl-1H-pyrazol-5-yl)phenyl)-3-methoxybenzamide. Compound 1, or a pharmaceutically acceptable salt, hydrate, or solvate thereof, inhibits serotonin-mediated vasoconstriction and inhibits serotonin-mediated amplification of platelet aggregation.
# human 5-HT2A = human 5-HT2A (Homo sapiens, UniProt P28223); assay: affinity for human 5-HT2A; type: binding
# Excerpt: as §1
# 5-HT2B receptors = 5-HT2B receptors (Homo sapiens, UniProt P41595); assay: affinity for 5-HT2B receptors; type: binding
# Excerpt: as §1
# [2] = Clinical Trial 1: phase 1 single oral dose escalation, PK; type: in vivo, human; settings: healthy subjects; for half-life compared with the parent compound: single oral dose of Compound 1 HCl
# Description: (§2) A phase 1, randomized, double-blind, placebo-controlled, single-dose escalation study was conducted to assess the tolerability, PK, and PD of the HCl salt of Compound 1 at doses of 1 to 320 mg (adjusted free-base concentration) administered orally as a single dose to a total of 91 healthy subjects.
# [3] = Clinical Trial 3: safety and tolerability of single IV doses; type: in vivo, human
# Description: (§3) A phase 1, randomized, blinded, sponsor-open, placebo-controlled, single ascending dose (SAD) study was conducted to assess the safety, tolerability, PK, and PD of single IV doses of Compound 1 and two active metabolites (M1 and M2) in healthy adult subjects. Five dose cohorts (each cohort composed of six Compound 1 subjects and two placebo subjects) were evaluated.
# (§4) Subjects received a single dose of Compound 1 or placebo. Each cohort included a sentinel group of two subjects (one active and one placebo) dosed at least 24 hours before the remaining six subjects (five active and one placebo). The remaining subjects were dosed following review of all available safety and tolerability data from the sentinel subjects. Safety, tolerability, and PK data were reviewed after the completion of each dose cohort and prior to escalation to the next dose cohort. PD data were reviewed prior to dosing subsequent cohorts. Selection of dose for subsequent cohorts was based on the data from previous cohort(s). Following administration of Compound 1 or placebo, subjects were confined for 72 hours to monitor safety and to collect PK/PD samples. Cardiodynamic electrocardiogram (ECG) sampling were collected pre-dose and through 24 hours post-dose in each cohort. The clinic contacted subjects on Day 11 (1 day) to determine if any adverse event (AE) occurred since discharge.
# (§5) IV doses of placebo […], 1 mg Compound 1 (n=6), 5 mg Compound 1 (n=6), 10 mg Compound 1 (n=5), 20 mg Compound 1 (n=6), 30 mg Compound 1 (n=6), or 40 mg Compound 1 (n=6) were administered. The doses of 1 mg, 5 mg, 10 mg, and 20 mg of Compound 1 were administered by slow bolus infusion over a period of two minutes, while the doses of 30 mg and 40 mg of Compound 1 were administered over a period of five minutes. The PD effects of the single doses were examined immediately after dosing and 4 hours after dosing.
# [4] = tested on: serotonin-mediated vasoconstriction; assay: serotonin-mediated vasoconstriction
# Excerpt: as §1
# [5] = tested on: thrombin receptor activating peptide (TRAP)-induced platelet aggregation; assay: Clinical Trial 1: PD, TRAP-induced platelet aggregation; type: in vivo, human; settings: single oral dose versus placebo, healthy subjects
# Description: as §2
# (§6) PD assessment consisted of measuring pre- and post-dose platelet aggregation using an in vitro assay with ADP with and without 5-HT. The degree of thrombin receptor activating peptide (TRAP)-induced platelet aggregation inhibition between groups was similar. However, Compound 1 inhibited 5-HT-mediated amplification of platelet aggregation at doses above 1 mg.
# [6] = tested on: 5-HT-mediated amplification of platelet aggregation; assay: Clinical Trial 3: PD, 5-HT-mediated amplification of platelet aggregation; type: in vivo, human; settings: single IV doses of 20 mg and greater
# Description: as §3
# as §4, with “discharge. […]” for “discharge.”
# [7] = Clinical Trial 3: phase 1 single ascending IV dose, PK; type: in vivo, human
# Description: as §3, §4, §5
# [8] = tested on: serotonin-mediated amplification of platelet aggregation; assay: serotonin-mediated amplification of platelet aggregation; type: cell-based
# Excerpt: as §1
# [9] = tested on: 5-HT-mediated amplification of platelet aggregation; assay: Clinical Trial 1: PD, platelet aggregation with ADP with and without 5-HT; type: in vivo, human; settings: single oral doses above 1 mg, healthy subjects
# Description: as §2, §6
# [10] = all doses, Day 1 versus Day 7, oral TID for 7 days
# Sequence of 5-HT2B receptors (P41595 whole entry): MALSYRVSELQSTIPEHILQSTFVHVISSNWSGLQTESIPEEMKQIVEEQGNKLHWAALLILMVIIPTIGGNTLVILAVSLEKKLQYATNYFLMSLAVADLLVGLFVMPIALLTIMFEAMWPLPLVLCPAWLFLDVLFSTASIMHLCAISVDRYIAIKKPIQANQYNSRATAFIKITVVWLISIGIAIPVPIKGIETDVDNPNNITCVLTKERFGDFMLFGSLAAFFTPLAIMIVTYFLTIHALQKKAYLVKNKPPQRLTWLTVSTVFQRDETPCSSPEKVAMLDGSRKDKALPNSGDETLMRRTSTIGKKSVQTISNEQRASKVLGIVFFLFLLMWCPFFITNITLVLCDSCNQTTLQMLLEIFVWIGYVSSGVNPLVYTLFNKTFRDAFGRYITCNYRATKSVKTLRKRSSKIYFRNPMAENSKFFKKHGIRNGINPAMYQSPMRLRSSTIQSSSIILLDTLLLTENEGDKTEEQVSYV
# Sequence of human 5-HT2A (P28223 whole entry): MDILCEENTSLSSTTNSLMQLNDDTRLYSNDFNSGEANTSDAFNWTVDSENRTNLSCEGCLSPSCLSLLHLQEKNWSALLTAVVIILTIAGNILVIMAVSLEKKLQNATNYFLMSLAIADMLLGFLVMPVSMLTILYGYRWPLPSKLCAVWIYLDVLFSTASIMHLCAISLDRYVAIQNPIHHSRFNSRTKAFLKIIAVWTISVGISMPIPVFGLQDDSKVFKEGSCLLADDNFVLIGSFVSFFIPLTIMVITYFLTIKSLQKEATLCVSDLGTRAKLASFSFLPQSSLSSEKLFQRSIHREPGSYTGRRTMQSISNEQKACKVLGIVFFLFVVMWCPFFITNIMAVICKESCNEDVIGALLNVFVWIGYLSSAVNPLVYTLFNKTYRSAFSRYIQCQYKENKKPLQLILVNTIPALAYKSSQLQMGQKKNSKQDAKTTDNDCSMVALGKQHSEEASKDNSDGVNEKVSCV
Compound,accumulation ratio as measured by AUCtau [1],metabolite exposures with increasing Compound 1 doses [1],metabolite to parent ratios with increasing Compound 1 doses [1],affinity for 5-HT2C receptors (5-HT2C receptors),affinity for human 5-HT2A (human 5-HT2A),affinity for 5-HT2B receptors (5-HT2B receptors),metabolite-to-parent ratios as the dose was escalated ([2]; single oral dose 1 to 320 mg),half-life compared with the parent compound [2],further results
"COc1cccc(C(=O)Nc2ccc(OCCN)c(-c3ccnn3C)c2)c1 [Compound M2, N-(4-(2-aminoethoxy)-3-(1-methyl-1H-pyrazol-5-yl)phenyl)-3-methoxybenzamide]",approximately 2,increased,decreased,no appreciable affinity,high affinity,no appreciable affinity,decreased,longer half-lives than the parent compound,–
"COc1cccc(C(=O)Nc2ccc(OCCNCCO)c(-c3ccnn3C)c2)c1 [Compound M1, N-(4-(2-(2-hydroxyethylamino)ethoxy)-3-(1-methyl-1H-pyrazol-5-yl)phenyl)-3-methoxybenzamide]",approximately 2,increased,decreased,no appreciable affinity,high affinity,no appreciable affinity,decreased,longer half-lives than the parent compound,–
"COc1cccc(C(=O)Nc2ccc(OCCN3CCOCC3)c(-c3ccnn3C)c2)c1 [Compound 1, 3-methoxy-N-[3-(2-methylpyrazol-3-yl)-4-(2-morpholin-4-ylethoxy)phenyl]benzamide]",–,–,–,no appreciable affinity,high affinity,no appreciable affinity,–,–,"epistaxis, subjects affected ([3]; Compound 1 group, single IV dose): one subject; bleeding-related TEAEs, Bleeding Academic Research Consortium (BARC) Type ([3]; single IV doses): ≤ 1; discontinuation of treatment ([3]; single IV doses 1 to 40 mg): No subjects discontinued treatment; AUC accumulation ratio [1, 10]: less than 2; Cmax accumulation ratio [1, 10]: less than 2; absorption ([1]; oral 5 to 80 mg TID for 7 days, healthy subjects): rapidly absorbed at all doses; exposure as measured by AUC versus dose ([1]; oral TID, 5 and 10 mg): dose proportional; exposure as measured by AUC versus dose ([1]; oral TID, 40, 60, and 80 mg, Day 1 and Day 7): greater than dose proportional; serotonin-mediated vasoconstriction [4]: inhibits; degree of TRAP-induced platelet aggregation inhibition between groups [5]: similar; inhibition of 5-HT-mediated amplification of platelet aggregation [6]: Near-maximal inhibition; Cmax ([7]; human, plasma, 40 mg single IV dose, healthy adult subjects, read-out: mean observed Cmax): 1840 ng/mL; half-life ([7]; human, plasma, single IV doses 1 to 40 mg, healthy adult subjects, read-out: mean terminal elimination half-life): 60 to 120 min; dose dependence of mean terminal elimination half-life ([7]; single IV doses 1 to 40 mg): dose-dependent; serotonin-mediated amplification of platelet aggregation [8]: inhibits; absorption ([2]; single oral dose 1 to 320 mg): rapidly absorbed at all doses; half-life as the dose was escalated ([2]; single oral dose 1 to 320 mg): half-life increased; plasma exposure measures versus dose ([2]; single oral dose 1 to 320 mg): increased in a greater than dose proportional manner; 5-HT-mediated amplification of platelet aggregation [9]: inhibited"
